In patent US9382254B2, “Compounds and pharmaceutical compositions thereof for the treatment of cystic fibrosis” (Galapagos NV, priority 2013, dated 2016):

Columns and labels:
Type in all cases: cell-based
CFTR ΔF508 mutant [1] = target: T1, CFTR ΔF508 mutant (Homo sapiens, UniProt P13569, DEL508-508); assay: YFP-halide influx assay for the CFTR-ΔF508 mutation, PBS buffer (96 well); conditions: CFBE41o- cells, forskolin 10.67 μM
T1 construct: expressed in transfected cells; host or cells: CFBE41o- (adenoviral transduction)
T1 sequence (P13569 with tags, fused parts or gaps DEL508-508): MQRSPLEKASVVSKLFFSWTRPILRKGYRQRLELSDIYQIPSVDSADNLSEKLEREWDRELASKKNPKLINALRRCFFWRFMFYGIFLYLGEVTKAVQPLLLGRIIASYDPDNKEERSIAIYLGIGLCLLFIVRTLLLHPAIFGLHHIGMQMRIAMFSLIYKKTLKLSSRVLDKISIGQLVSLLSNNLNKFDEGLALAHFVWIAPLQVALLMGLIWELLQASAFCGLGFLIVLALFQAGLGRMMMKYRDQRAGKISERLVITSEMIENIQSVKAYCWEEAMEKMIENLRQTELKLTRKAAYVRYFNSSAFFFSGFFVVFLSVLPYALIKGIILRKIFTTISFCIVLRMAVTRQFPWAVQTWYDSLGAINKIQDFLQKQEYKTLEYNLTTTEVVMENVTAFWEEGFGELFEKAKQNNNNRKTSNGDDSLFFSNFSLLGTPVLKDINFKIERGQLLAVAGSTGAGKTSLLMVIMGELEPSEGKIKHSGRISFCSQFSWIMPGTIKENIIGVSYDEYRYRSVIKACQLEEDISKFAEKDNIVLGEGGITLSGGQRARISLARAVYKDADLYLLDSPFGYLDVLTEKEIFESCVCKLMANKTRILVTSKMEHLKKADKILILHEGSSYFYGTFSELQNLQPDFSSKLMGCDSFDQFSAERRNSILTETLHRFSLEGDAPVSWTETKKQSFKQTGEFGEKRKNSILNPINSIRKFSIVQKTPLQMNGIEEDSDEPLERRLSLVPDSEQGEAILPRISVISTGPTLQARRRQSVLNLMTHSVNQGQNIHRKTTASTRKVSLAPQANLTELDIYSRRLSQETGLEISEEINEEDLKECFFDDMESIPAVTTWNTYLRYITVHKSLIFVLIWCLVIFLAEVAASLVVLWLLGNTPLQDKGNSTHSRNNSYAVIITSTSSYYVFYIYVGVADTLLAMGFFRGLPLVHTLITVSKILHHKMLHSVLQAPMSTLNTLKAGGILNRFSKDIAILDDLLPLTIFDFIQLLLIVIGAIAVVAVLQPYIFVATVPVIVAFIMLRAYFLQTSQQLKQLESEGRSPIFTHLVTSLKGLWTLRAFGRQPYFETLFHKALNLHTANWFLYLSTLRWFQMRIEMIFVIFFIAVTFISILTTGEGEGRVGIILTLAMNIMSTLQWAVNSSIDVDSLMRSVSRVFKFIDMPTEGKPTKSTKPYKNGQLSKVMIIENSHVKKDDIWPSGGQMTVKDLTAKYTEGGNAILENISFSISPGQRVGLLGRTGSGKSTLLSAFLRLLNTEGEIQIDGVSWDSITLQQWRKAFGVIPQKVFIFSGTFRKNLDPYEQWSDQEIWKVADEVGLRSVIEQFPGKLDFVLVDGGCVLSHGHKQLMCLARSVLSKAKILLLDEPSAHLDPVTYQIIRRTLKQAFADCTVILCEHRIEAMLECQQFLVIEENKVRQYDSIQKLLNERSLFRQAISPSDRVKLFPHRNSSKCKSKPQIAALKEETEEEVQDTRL
Excerpt: The YFP halide influx assay measures the functionality of the cystic fibrosis Transmembrane Conductance regulator (CFTR) channels in the cystic fibrosis bronchial epithelium cell line CFBE41o-. The assay is used to evaluate the capacity of compounds to increase the open probability of existing CFTR channels in the membrane. It makes use of the observation that the yellow fluorescent protein (YFP) variant YFP H148Q, I152L has its fluorescence substantially quenched by halide ions like Cl^− and I^−. (Galietta, Haggie, & Verkman, 2001) (Nagai, et al., 2002)
For this purpose, CFBE41o-cells are seeded in 96 well plates (6000 CFBE cells/well). One day after seeding, the CFBE cells are transduced with adenoviral vectors that direct the expression of the CFTR ΔF508 mutant and of the YFP reporter. Cells are incubated at 27° C., 5% CO2 for 24 hours so as to allow for the proper folding and migration to the membrane of the CFTR channel or treated with a CFTR modulator during 24 hours at 37° C.
The I^− induced quenching of fluorescence is recorded immediately after injection of I^− for 7 seconds. The capacity of a compound to increase the channel opening is directly correlated with the decrease in fluorescence, and is expressed as (1-(fluorescence after 7 seconds (F)/fluorescence before injection (F0))) and an EC50 can be derived from a (1-F/F0) vs compound concentration plot.

CFTR ΔF508 mutant [2] = target: T1, CFTR ΔF508 mutant; assay: YFP-halide influx assay for the CFTR-ΔF508 mutation, gluconate buffer; conditions: CFBE41o- cells, forskolin 10.67 μM
Summary of the method: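 Channel opening is read as the fall in YFP fluorescence over 7 s following iodide injection, expressed as 1-F/F0 and plotted versus compound concentration to derive EC50. Cells used were CFBE41o- expressing adenoviral ΔF508 CFTR and halide-sensitive YFP, rescued by 24 h at 27 °C or 24 h modulator treatment at 37 °C.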

CFTR ΔF508 mutant [3] = target: T1, CFTR ΔF508 mutant; assay: YFP-halide influx assay for the CFTR-ΔF508 mutation (384 well, FDSS/μCell); conditions: CFBE41o- cells, CFTR-ΔF508, 1×D-PBS, fluorescence after 36 seconds
Summary of the method: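 Potentiator read-out as 1−F/F0, F taken 36 s after iodide addition, EC50 fitted against compound concentration. Cells: CFBE41o- expressing ΔF508 CFTR plus halide-sensitive YFP via adenovirus, rescued by 27 °C for 24 h or 24 h modulator at 37 °C.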

CFTR G551D mutant = target: T2, CFTR G551D mutant (Homo sapiens, UniProt P13569, G551D); assay: YFP-halide influx assay for the CFTR-G551D mutation; conditions: HEK293 cells, forskolin 10.67 μM
T2 construct: expressed in transfected cells; host or cells: HEK293 (reverse transfection with plasmid)
T2 sequence (P13569 whole entry G551D): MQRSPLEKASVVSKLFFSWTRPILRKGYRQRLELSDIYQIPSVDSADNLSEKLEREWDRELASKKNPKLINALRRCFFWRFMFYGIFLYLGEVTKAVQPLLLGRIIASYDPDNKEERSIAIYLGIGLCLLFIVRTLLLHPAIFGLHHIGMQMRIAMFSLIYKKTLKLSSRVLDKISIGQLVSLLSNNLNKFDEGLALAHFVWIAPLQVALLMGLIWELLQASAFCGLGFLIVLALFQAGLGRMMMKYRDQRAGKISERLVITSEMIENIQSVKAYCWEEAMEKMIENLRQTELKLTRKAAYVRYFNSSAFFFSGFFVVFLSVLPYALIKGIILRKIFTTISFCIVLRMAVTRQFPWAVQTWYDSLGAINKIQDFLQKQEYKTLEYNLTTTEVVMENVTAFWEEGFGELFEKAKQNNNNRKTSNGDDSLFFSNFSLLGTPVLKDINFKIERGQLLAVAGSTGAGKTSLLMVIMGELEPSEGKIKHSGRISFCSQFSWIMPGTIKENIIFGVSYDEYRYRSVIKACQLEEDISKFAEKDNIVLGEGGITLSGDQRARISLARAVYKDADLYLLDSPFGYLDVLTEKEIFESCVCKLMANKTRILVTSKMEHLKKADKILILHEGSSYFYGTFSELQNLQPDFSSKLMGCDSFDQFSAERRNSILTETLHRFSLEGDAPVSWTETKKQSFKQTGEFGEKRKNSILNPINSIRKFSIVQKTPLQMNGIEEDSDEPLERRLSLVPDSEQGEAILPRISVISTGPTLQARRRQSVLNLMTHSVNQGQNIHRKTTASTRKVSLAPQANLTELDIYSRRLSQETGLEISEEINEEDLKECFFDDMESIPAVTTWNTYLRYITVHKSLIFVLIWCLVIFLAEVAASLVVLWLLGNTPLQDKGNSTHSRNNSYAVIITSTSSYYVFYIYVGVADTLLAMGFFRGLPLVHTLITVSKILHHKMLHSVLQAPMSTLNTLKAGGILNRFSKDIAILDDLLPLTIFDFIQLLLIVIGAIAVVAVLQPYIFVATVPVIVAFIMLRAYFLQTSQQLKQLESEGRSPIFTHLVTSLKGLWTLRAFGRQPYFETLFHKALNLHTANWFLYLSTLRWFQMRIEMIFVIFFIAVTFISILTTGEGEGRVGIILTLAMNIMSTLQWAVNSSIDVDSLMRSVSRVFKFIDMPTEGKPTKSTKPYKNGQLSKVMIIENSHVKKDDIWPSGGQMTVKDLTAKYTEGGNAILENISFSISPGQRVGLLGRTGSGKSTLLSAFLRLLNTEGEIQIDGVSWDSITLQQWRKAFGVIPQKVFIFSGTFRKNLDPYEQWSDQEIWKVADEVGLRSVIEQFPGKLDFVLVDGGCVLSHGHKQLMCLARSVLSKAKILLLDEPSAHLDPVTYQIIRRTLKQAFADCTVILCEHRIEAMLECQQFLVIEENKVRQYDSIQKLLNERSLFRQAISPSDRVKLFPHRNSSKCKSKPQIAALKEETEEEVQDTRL
Summary of the method: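 Channel opening potentiation measured as 1−F/F0, where F is YFP fluorescence 7 s after iodide injection and F0 before; EC50 taken from concentration plot. Cells: HEK293 transiently expressing CFTR G551D plus halide-sensitive YFP (H148Q, I152L, F47L), 24 h at 37 °C, 5% CO2.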

SMILES	EC50 (CFTR ΔF508 mutant [1]) [µM]	EC50 (CFTR ΔF508 mutant [2]) [µM]	EC50 (CFTR ΔF508 mutant [3]) [µM]	EC50 (CFTR G551D mutant) [µM]
NC(=O)c1cc(S(=O)(=O)N2CCOCC2)sc1NC(=O)c1c(O)cc(F)cc1F [Compound 212, 2-(2,4-difluoro-6-hydroxybenzamido)-5-(morpholinosulfonyl) thiophene-3-carboxamide]	0.0703	0.184	–	–
CC(C)c1cc(C(=O)Nc2sc(S(=O)(=O)N3CCC(F)(F)CC3)cc2C(N)=O)c(O)c(C(C)C)c1 [Compound 215, 5-(4,4-difluoropiperidin-1-ylsulfonyl)-2-(2-hydroxy-3,5-diisopropylbenzamido) thiophene-3-carboxamide]	0.862	0.292	–	–
CC1CN(S(=O)(=O)c2cc(C(N)=O)c(NC(=O)c3ccccc3C(F)(F)F)s2)C(C)(C)CO1 (stereo not shown) [Compound 263, 2-(2-(trifluoromethyl)benzamido)-5-(2,5,5-trimethylmorpholinosulfonyl) thiophene-3-carboxamide]	0.0811	–	0.148	3.33
NC(=O)c1cc(S(=O)(=O)c2ccc(F)cc2Br)sc1NC(=O)C1(O)CC1 [Compound 264, 5-(2-bromo-4-fluorophenylsulfonyl)-2-(1-hydroxycyclopropanecarboxamido) thiophene-3-carboxamide]	0.0301	–	0.0194	1.02
CC(C)Oc1cccc(S(=O)(=O)c2cc(C(N)=O)c(NC(=O)C(C)(C)O)s2)c1 [Compound 265, 2-(2-hydroxy-2-methylpropanamido)-5-(3-isopropoxyphenylsulfonyl) thiophene-3-carboxamide]	0.0422	–	0.0917	2
CC(C)(O)C(=O)Nc1sc(S(=O)(=O)c2cccc(OC(F)(F)F)c2)cc1C(N)=O [Compound 269, 2-(2-hydroxy-2-methylpropanamido)-5-(3-(trifluoromethoxy)phenylsulfonyl) thiophene-3-carboxamide]	0.033	–	0.0101	0.935
CC(C)Oc1ccc(S(=O)(=O)c2cc(C(N)=O)c(NC(=O)C(C)(C)O)s2)cc1 [Compound 279, 2-(2-hydroxy-2-methylpropanamido)-5-(4-isopropoxyphenylsulfonyl) thiophene-3-carboxamide]	0.0555	–	0.116	0.614
CC(C)Oc1cc(F)ccc1S(=O)(=O)c1cc(C(N)=O)c(NC(=O)C(C)(C)O)s1 [Compound 281, 5-(4-fluoro-2-isopropoxyphenylsulfonyl)-2-(2-hydroxy-2-methylpropanamido) thiophene-3-carboxamide]	0.0411	–	0.136	1.54
CC(C)(O)C(=O)Nc1sc(S(=O)(=O)c2ccc(F)cc2OC(F)F)cc1C(N)=O [Compound 283, 5-(2-(difluoromethoxy)-4-fluorophenylsulfonyl)-2-(2-hydroxy-2-methylpropanamido) thiophene-3-carboxamide]	0.0477	–	0.0696	0.564
C[C@H](O)C(=O)Nc1sc(S(=O)(=O)c2ccc(F)cc2)cc1C(N)=O [Compound 291, (S)-5-(4-fluorophenylsulfonyl)-2-(2-hydroxypropanamido) thiophene-3-carboxamide]	0.0812	–	0.0173	1.51
CN(c1ccc(F)cc1)S(=O)(=O)c1cc(C(N)=O)c(NC(=O)C(C)(C)O)s1 [Compound 304, 5-(N-(4-fluorophenyl)-N-methylsulfamoyl)-2-(2-hydroxy-2-methylpropanamido) thiophene-3-carboxamide]	0.0785	–	0.109	3.33
CN(Cc1ccc(F)cc1)S(=O)(=O)c1cc(C(N)=O)c(NC(=O)C(C)(C)O)s1 [Compound 305, 5-(N-(4-fluorobenzyl)-N-methylsulfamoyl)-2-(2-hydroxy-2-methylpropanamido) thiophene-3-carboxamide]	0.0315	–	0.0239	0.803
CC(O)C(=O)Nc1sc(S(=O)(=O)c2ccccc2OC(F)(F)F)cc1C(N)=O (stereo not shown) [Compound 311, 2-(2-hydroxypropanamido)-5-(2-(trifluoromethoxy)phenylsulfonyl) thiophene-3-carboxamide]	0.0152	–	0.0035	0.607

Continued by falling EC50 (CFTR ΔF508 mutant [1]), values first:

EC50 (CFTR ΔF508 mutant [1]) [µM]	EC50 (CFTR ΔF508 mutant [2]) [µM]	EC50 (CFTR ΔF508 mutant [3]) [µM]	EC50 (CFTR G551D mutant) [µM]	SMILES
0.111	–	0.148	3.08	CC(CO)C(=O)Nc1sc(S(=O)(=O)c2ccc(F)cc2)cc1C(N)=O (stereo not shown) [Compound 273, 5-(4-fluorophenylsulfonyl)-2-(3-hydroxy-2-methylpropanamido) thiophene-3-carboxamide]
0.0952	–	0.0356	1.01	COc1ccc(F)cc1S(=O)(=O)c1cc(C(N)=O)c(NC(=O)C(C)(C)O)s1 [Compound 295, 5-(5-fluoro-2-methoxyphenylsulfonyl)-2-(2-hydroxy-2-methylpropanamido) thiophene-3-carboxamide]
0.07	–	0.182	2.28	CN(C)c1cccc(S(=O)(=O)c2cc(C(N)=O)c(NC(=O)C(C)(C)O)s2)c1 [Compound 292, 5-(3-(dimethylamino)phenylsulfonyl)-2-(2-hydroxy-2-methylpropanamido) thiophene-3-carboxamide]
0.051	–	0.0852	0.793	COc1ccc(S(=O)(=O)c2cc(C(N)=O)c(NC(=O)C(C)(C)O)s2)c(OC(F)F)c1 [Compound 284, 5-(2-(difluoromethoxy)-4-methoxyphenylsulfonyl)-2-(2-hydroxy-2-methylpropanamido) thiophene-3-carboxamide]
0.0489	–	0.102	0.771	NC(=O)c1cc(S(=O)(=O)c2ccc(F)cc2)sc1NC(=O)C1CCCC1O (stereo not shown) [Compound 272, 5-(4-fluorophenylsulfonyl)-2-(2-hydroxycyclopentanecarboxamido) thiophene-3-carboxamide]
0.0426	–	0.0661	1.76	CC(C)(O)C(=O)Nc1sc(S(=O)(=O)c2ccc3c(c2)OC(F)(F)O3)cc1C(N)=O [Compound 310, 5-(2,2-difluorobenzo[d][1,3]dioxol-5-ylsulfonyl)-2-(2-hydroxy-2-methylpropanamido) thiophene-3-carboxamide]
0.0375	–	0.0085	1.67	CC(C)(O)C(=O)Nc1sc(S(=O)(=O)c2cc(Cl)ccc2F)cc1C(N)=O [Compound 303, 5-(5-chloro-2-fluorophenylsulfonyl)-2-(2-hydroxy-2-methylpropanamido) thiophene-3-carboxamide]
0.0328	–	0.0285	0.793	CC(C)(O)C(=O)Nc1sc(S(=O)(=O)N2CCOc3ccccc32)cc1C(N)=O [Compound 307, 5-(2H-benzo[b][1,4]oxazin-4(3H)-ylsulfonyl)-2-(2-hydroxy-2-methylpropanamido) thiophene-3-carboxamide]
0.0311	–	0.0284	0.191	CC(C)(O)C(=O)Nc1sc(S(=O)(=O)c2ccccc2C(F)(F)F)cc1C(N)=O [Compound 289, 2-(2-hydroxy-2-methylpropanamido)-5-(2-(trifluoromethyl)phenylsulfonyl) thiophene-3-carboxamide]
0.028	–	0.117	1.66	NC(=O)c1cc(S(=O)(=O)c2ccc(F)cc2)sc1NC(=O)C1CCCCC1O (stereo not shown) [Compound 280, 5-(4-fluorophenylsulfonyl)-2-(2-hydroxycyclohexanecarboxamido) thiophene-3-carboxamide]
0.0151	–	0.0076	0.11	CC(C)c1ccccc1S(=O)(=O)c1cc(C(N)=O)c(NC(=O)C(C)(C)O)s1 [Compound 293, 2-(2-hydroxy-2-methylpropanamido)-5-(2-isopropylphenylsulfonyl) thiophene-3-carboxamide]
0.0113	–	0.0081	0.307	CC(C)(O)C(=O)Nc1sc(S(=O)(=O)c2ccccc2CC(F)(F)F)cc1C(N)=O [Compound 302, 2-(2-hydroxy-2-methylpropanamido)-5-(2-(2,2,2-trifluoroethyl)phenylsulfonyl) thiophene-3-carboxamide]
